Assay results: patent US7727736B2, “Soluble phospholipids for use in clotting factor assays” (The University of North Carolina at Chapel Hill, priority 2003, dated 2010)

Columns and labels:
factor IXa = molecular target: T1, factor IXa (Homo sapiens, UniProt P00740); assay: Amidolytic activity of factor IXa with increasing C6PS; assay type: biochemical; conditions: 300 nM factor IXa, substrate Leu-PHG-Arg-pNA-AcOH; read-out: Kd from amidolytic activity of factor IXa
T1 construct: intrinsic tryptophan fluorescence of factor IXa
T1 sequence (P00740 47-191 limits assumed): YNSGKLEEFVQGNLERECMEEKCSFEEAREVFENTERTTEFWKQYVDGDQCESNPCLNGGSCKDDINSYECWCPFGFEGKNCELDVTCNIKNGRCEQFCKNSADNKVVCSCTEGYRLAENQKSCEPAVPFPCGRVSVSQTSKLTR
T1 sequence (P00740 227-461 limits assumed): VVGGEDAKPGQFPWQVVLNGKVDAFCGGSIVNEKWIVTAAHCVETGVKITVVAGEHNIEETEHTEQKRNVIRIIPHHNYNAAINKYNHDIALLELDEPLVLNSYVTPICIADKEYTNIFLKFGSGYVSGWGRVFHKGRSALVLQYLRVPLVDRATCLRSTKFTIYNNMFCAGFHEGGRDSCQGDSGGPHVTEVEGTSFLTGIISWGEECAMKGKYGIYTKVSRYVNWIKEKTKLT
Procedure: The assay was conducted in the presence of 1 mM Leu-PHG-Arg-pNA.AcOH and increasing concentrations of C6PS.

factor VIII = molecular target: T2, factor VIII (Homo sapiens, UniProt P00451); assay: Chromogenic FVIII assay; assay type: biochemical; conditions: normal pooled plasma (100% factor VIII), varying C6PS
T2 construct: using normal pooled plasma (100% factor VIII); from tissue; host or cells: normal pooled plasma
T2 sequence (P00451 20-391 limits assumed): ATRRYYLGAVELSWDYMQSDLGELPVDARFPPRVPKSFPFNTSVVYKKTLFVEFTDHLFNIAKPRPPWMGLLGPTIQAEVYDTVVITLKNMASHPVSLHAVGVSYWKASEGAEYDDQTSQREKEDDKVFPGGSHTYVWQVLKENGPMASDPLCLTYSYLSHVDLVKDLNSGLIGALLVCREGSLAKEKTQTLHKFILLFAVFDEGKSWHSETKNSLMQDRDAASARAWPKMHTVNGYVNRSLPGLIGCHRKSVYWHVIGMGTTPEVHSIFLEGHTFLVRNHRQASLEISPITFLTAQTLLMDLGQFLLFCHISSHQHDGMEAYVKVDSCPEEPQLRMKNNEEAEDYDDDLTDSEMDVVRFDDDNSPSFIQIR
T2 sequence (P00451 392-759 limits assumed): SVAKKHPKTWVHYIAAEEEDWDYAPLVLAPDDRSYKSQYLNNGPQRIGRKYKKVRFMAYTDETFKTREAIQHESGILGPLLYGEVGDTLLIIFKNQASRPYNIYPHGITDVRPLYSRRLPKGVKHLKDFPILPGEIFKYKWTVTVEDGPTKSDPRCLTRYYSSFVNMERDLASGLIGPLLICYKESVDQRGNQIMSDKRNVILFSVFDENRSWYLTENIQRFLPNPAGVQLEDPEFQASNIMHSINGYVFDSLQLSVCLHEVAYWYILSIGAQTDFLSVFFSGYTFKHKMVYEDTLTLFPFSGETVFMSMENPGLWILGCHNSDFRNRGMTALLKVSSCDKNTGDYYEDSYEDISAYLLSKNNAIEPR
T2 sequence (P00451 1709-2351 limits assumed): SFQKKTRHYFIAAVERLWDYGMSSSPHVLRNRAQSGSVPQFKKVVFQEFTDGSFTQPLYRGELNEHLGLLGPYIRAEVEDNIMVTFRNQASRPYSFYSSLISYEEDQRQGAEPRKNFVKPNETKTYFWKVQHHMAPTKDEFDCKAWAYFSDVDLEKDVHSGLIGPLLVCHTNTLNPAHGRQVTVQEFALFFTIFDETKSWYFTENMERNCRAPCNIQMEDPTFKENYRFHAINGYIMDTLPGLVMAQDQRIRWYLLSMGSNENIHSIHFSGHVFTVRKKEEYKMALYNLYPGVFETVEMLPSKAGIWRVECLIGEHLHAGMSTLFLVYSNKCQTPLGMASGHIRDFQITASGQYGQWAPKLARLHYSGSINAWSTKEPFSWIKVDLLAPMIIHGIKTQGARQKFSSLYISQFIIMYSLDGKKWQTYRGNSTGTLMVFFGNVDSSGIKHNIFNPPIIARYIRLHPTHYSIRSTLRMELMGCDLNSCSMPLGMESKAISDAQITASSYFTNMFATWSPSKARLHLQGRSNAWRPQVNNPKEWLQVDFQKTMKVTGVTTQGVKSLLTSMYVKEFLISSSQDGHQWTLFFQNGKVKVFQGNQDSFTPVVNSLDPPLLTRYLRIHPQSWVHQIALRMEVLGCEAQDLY
T2 sequence (P00740 47-191 partner limits assumed): as the sequence (P00740 47-191 limits assumed) above
T2 sequence (P00740 227-461 partner limits assumed): as the sequence (P00740 227-461 limits assumed) above
Procedure: For the chromogenic […], a standard curve was prepared by diluting normal pooled plasma (which had 1 U/mL […] according to the certification sheets) into […] to give levels of 100% factor VIII, 75%, 50%, 25%, and 10% along with the factor VIII deficient plasma, which has 0% factor VIII.
Two mixtures were prepared. Mixture #1 consisted of thrombin—3 nM, factor IXa—3 nM, factor X—7.2 μg/mL, calcium—12 mM in a buffer of 20 mM Tris (pH 7.9), 150 mM NaCl. Also included in Mixture #1 were either lipid vesicles (lipid unilamellar vesicles; “LUV”)—20 μM or C6PS—2,625 μM. Mixture #2 consisted of hirudin—60 nM and Pefachrome FXa—1.8 mM in a buffer of 20 mM Tris (pH 7.9), 150 mM NaCl.
Factor VIII levels were assayed by adding 25 μL plasma to 2000 μL of buffer. 50 μL of the diluted plasma, 100 μL Mixture #1, and […] were incubated at 37° C. for 3 minutes. […] Finally, 50 μL of Mixture #2 was added to diluted plasma+Mixture #1 and the reaction was monitored at 405 nm for 5 minutes. The rate is the change in absorbance between 30 seconds and 120 seconds expressed as mOD/minute. […]
The effect of varying C6PS levels was also monitored as described above using normal pooled plasma (100% factor VIII), except that the concentration of C6PS in Mixture #1 was varied by serial dilution into buffer before being added to the final Mixture #1.

`CCCCCC(=O)OC[C@H](COP(=O)(O)OC[C@H](N)C(=O)O)OC(=O)CCCCC` [C6PS, 1,2-dicaproyl-sn-glycero-3-phospho-L-serine] was tested, and the Kd (factor IXa) was 130 µM and the “rate in FVIII chromogenic assay versus C6PS concentration” value (factor VIII) was “saturated”.
